“And” between values parts separate entries of the source, which are not always exact repeats. Equal values may be shown once.
Conditions: 303.16 K, Liquid, Vibrating tube method

CCCCCC(=O)OCC(COC(=O)CCCCC)(COC(=O)CCCCC)COC(=O)CCCCC [pentaerythritol tetrahexanoate]
Conditions | mass density
10818 kPa | 995.1 kg/m3
10847 kPa | 995.1 kg/m3
10876 kPa | 995.3 kg/m3
10911 kPa | 995.2 kg/m3
10941 kPa | 995.3 kg/m3
10972 kPa | 995.3 kg/m3
11002 kPa | 995.2 kg/m3
11031 kPa | 995.3 kg/m3
11066 kPa | 995.3 kg/m3
11454 kPa | 995.6 kg/m3
11487 kPa | 995.6 kg/m3
11513 kPa | 995.6 kg/m3
11540 kPa | 995.6 kg/m3
11571 kPa | 995.7 kg/m3
11596 kPa | 995.6 kg/m3
11626 kPa | 995.6 kg/m3
11790 kPa | 995.8 kg/m3
11810 kPa | 995.6 kg/m3
11820 kPa | 995.9 kg/m3
11829 kPa | 995.8 kg/m3
11924 kPa | 995.8 kg/m3
11933 kPa | 995.7 kg/m3
11944 kPa | 995.8 kg/m3
11958 kPa | 995.9 kg/m3
11979 kPa | 995.9 kg/m3
11996 kPa | 996 kg/m3
12017 kPa | 996 kg/m3
12842 kPa | 996.5 kg/m3
12884 kPa | 996.5 kg/m3
13029 kPa | 996.6 kg/m3
13048 kPa | 996.5 kg/m3
13072 kPa | 996.5 kg/m3
13092 kPa | 996.6 kg/m3
13112 kPa | 996.6 kg/m3
13136 kPa | 996.7 kg/m3
13156 kPa | 996.5 kg/m3
13176 kPa | 996.6 kg/m3
13200 kPa | 996.7 kg/m3
13220 kPa | 996.6 kg/m3
13241 kPa | 996.7 kg/m3
13266 kPa | 996.7 kg/m3
13286 kPa | 996.7 kg/m3
14924 kPa | 997.7 kg/m3
14953 kPa | 997.6 kg/m3
14977 kPa | 997.7 kg/m3
15002 kPa | 997.7 kg/m3
15135 kPa | 997.8 kg/m3
15160 kPa | 997.8 kg/m3
15189 kPa | 997.8 kg/m3
15214 kPa | 997.8 kg/m3
15239 kPa | 997.8 kg/m3
15264 kPa | 997.9 kg/m3
15318 kPa | 997.9 kg/m3
15342 kPa | 997.9 kg/m3
15371 kPa | 997.9 kg/m3
15394 kPa | 997.9 kg/m3
15422 kPa | 997.9 kg/m3
15445 kPa | 998 kg/m3
15468 kPa | 998 kg/m3
15492 kPa | 998 kg/m3
15520 kPa | 998 kg/m3
15543 kPa | 998 kg/m3
15567 kPa | 997.9 kg/m3
15595 kPa | 998 kg/m3
15618 kPa | 998 kg/m3
15865 kPa | 998.4 kg/m3
16816 kPa | 998.8 kg/m3
17240 kPa | 999 kg/m3
17241 kPa | 999 kg/m3
17243 kPa | 999 kg/m3
17245 kPa | 999 kg/m3
17258 kPa | 999.1 kg/m3
17279 kPa | 999 kg/m3
17302 kPa | 999 kg/m3
17313 kPa | 999 kg/m3
17343 kPa | 999.1 kg/m3
17353 kPa | 999.1 kg/m3 and 999 kg/m3
17354 kPa | 999.1 kg/m3 and 999.2 kg/m3
17601 kPa | 999.3 kg/m3
17625 kPa | 999.2 kg/m3
17654 kPa | 999.2 kg/m3
17675 kPa | 999.2 kg/m3
17704 kPa | 999.3 kg/m3
17727 kPa | 999.3 kg/m3
17750 kPa | 999.5 kg/m3
17777 kPa | 999.3 kg/m3
17799 kPa | 999.3 kg/m3
17825 kPa | 999.3 kg/m3
17847 kPa | 999.3 kg/m3
17869 kPa | 999.3 kg/m3
17891 kPa | 999.4 kg/m3
18682 kPa | 999.8 kg/m3
18706 kPa | 999.9 kg/m3
18735 kPa | 999.9 kg/m3
18759 kPa | 999.9 kg/m3
18784 kPa | 999.9 kg/m3
18808 kPa | 1000 kg/m3
18838 kPa | 999.9 kg/m3
18862 kPa | 1000 kg/m3
18892 kPa | 1000 kg/m3
23429 kPa | 1002.6 kg/m3
23459 kPa | 1002.6 kg/m3
23495 kPa | 1002.6 kg/m3
23525 kPa | 1002.6 kg/m3
23561 kPa | 1002.7 kg/m3
23592 kPa | 1002.6 kg/m3
23622 kPa | 1002.8 kg/m3
23653 kPa | 1002.7 kg/m3
23690 kPa | 1002.8 kg/m3
23720 kPa | 1002.8 kg/m3
23757 kPa | 1002.7 kg/m3
23788 kPa | 1002.8 kg/m3
23820 kPa | 1002.9 kg/m3
23856 kPa | 1002.8 kg/m3
23888 kPa | 1002.8 kg/m3
23920 kPa | 1002.9 kg/m3
23958 kPa | 1002.9 kg/m3
23990 kPa | 1002.8 kg/m3
24022 kPa | 1002.9 kg/m3
24054 kPa | 1002.8 kg/m3
24093 kPa | 1003 kg/m3
24125 kPa | 1003 kg/m3
24164 kPa | 1003 kg/m3
24196 kPa | 1003.1 kg/m3
24226 kPa | 1003 kg/m3
24255 kPa | 1003.1 kg/m3
24419 kPa | 1003.2 kg/m3
24447 kPa | 1003.2 kg/m3
24481 kPa | 1003.2 kg/m3
24509 kPa | 1003.2 kg/m3
24537 kPa | 1003.1 kg/m3
24571 kPa | 1003.3 kg/m3
24599 kPa | 1003.3 kg/m3
24628 kPa | 1003.3 kg/m3
24656 kPa | 1003.4 kg/m3
24691 kPa | 1003.3 kg/m3
24720 kPa | 1003.3 kg/m3
24749 kPa | 1003.3 kg/m3
24778 kPa | 1003.3 kg/m3
24812 kPa | 1003.4 kg/m3
24935 kPa | 1003.4 kg/m3
25029 kPa | 1003.4 kg/m3
25058 kPa | 1003.4 kg/m3
25094 kPa | 1003.6 kg/m3

— the NIST ThermoML archive (doi:10.1021/je060271a)
